Experimental data published in US11479580B2, “Polypeptide expressed in the stratum corneum and use thereof” (CENTRE NATIONAL DE LA RECHERCHE SCIENTIFIQUE—CNRS, priority 2010, dated 2022).

How the values were obtained:
[1] = test system: transglutaminases present in the granular layer of the human epidermis; experiment: In situ binding assay of biotinylated polypeptides on cryosections of human abdominal skin; format: biochemical; details: 100 μM; for marking of the granular keratinocytes, negative control: 100 mM EDTA, absence of calcium; for marking of the contour of the granular keratinocytes (polypeptide bound to cornified envelopes): 5 mM CaCl2, 2 h at room temperature, confocal microscope
Experimental: To determine what region of the LCE6A protein is necessary for binding by the transglutaminases, the applicant arranged for the company MilleGen to synthesize various polypeptides, biotinylated at their N-terminal end, with a length of 9 to 13 amino acids, corresponding to different regions of the amino acid sequence of LCE6A.
These polypeptides were used in binding assays in situ. Cryosections of human abdominal skin, saturated by incubation in the presence of bovine albumin at 1% in PBS for 30 minutes at room temperature, were brought into contact with 100 mM Tris (pH 7.4) containing 100 μM of biotinylated polypeptide and 5 mM of CaCl2. After incubation for 2 h at room temperature, the reaction is stopped by adding EDTA at 25 mM for 5 minutes. The sections are then incubated in PBS containing 1% of SDS to destroy the noncovalent bonds.
The presence of biotinylated polypeptides bound to the cornified envelopes by the transglutaminases that are present and active in the tissue is detected by incubation of the sections with streptavidin-AlexaFluor555 at 5 μg/ml (Invitrogen) and visualization in the confocal microscope.
A positive control is performed in a similar experiment but by incubating the sections with 100 μM of cadaverine coupled to AlexaFluor555 (Invitrogen) instead of the polypeptides. For the negative controls, the cryosections are incubated with each biotinylated polypeptide or with cadaverine coupled to AlexaFluor555 but incubation is carried out in the presence of 100 mM of EDTA and in the absence of calcium.

[2] = test system: endogenous transglutaminase; experiment: In vitro crosslinking binding assay with short peptide analogues of LCE6A fragments on human skin cryosections; format: biochemical; details: for labelling of the contour of the granular keratinocytes (peptide crosslinked to cornified envelopes) / labelling of the granular keratinocytes, negative control: 100 μM; for labelling of the contour of the granular keratinocytes (peptide crosslinked to cornified envelopes): 5 mM CaCl2, 2 h at room temperature, fluorescence microscope; for labelling of the granular keratinocytes, negative control: in the presence of EDTA, absence of calcium
Experimental: Protocol: The following short peptides derived from the amino acid sequences PEVQKP of LCE6A (amino-acids 49 to 54 of SEQ ID NO:2), which sequences meet the criteria defined above and are biotinylated at their amino-terminus, were synthesized: PGVQKP (SEQ ID NO: 7), PEGQKP (SEQ ID NO: 8), GEVQKP (SEQ ID No: 9), PEVQKG (SEQ ID No: 10).
These peptides were used at a concentration of 100 μM in in situ binding assays. Cryosections of human abdominal skin, saturated by incubation in the presence of bovine albumin at 1% in PBS for 30 minutes at room temperature, were brought into contact with 100 mM Tris (pH 7.4) containing 100 μM of biotinylated polypeptide and 5 mM of CaCl2). After incubation for 2 h at room temperature, the reaction was stopped by adding EDTA at 25 mM for 20 minutes. The sections were then incubated in PBS containing 1% of SDS to destroy the noncovalent bonds. The presence of biotinylated polypeptides bound to the cornified envelopes by the transglutaminases that are present and active in the tissue was detected by incubation of the sections with streptavidin-AlexaFluor555 at 5 μg/ml (Invitrogen) and visualization in the fluorescence microscope. A positive control was performed in a similar experiment but by incubating the sections with 100 μM of the peptide PEVQKP of LCE6A (amino-acids 49 to 54 of SEQ ID NO: 2). For the negative control, the cryosections were incubated with each biotinylated polypeptide but incubation was carried out in the presence of 100 mM of EDTA and in the absence of calcium.

SEQ ID NO: 3: polypeptide fragment of LCE6A, 9 to 13 amino acids, sequence not printed in the text (MSQQKQQSW; Designed peptide based on homology to amino acid residue 1 to 9 from Protein LCE6A)
marking of the granular keratinocytes, negative control [1]: no marking is obtained

EVAKPRRARQALR (Mutated peptide of SEQ ID NO 5) [reference compound]
marking of the contour of the granular keratinocytes (polypeptide bound to cornified envelopes) [1]: does not give any pericellular marking

SEQ ID NO: 5: polypeptide fragment of LCE6A, 9 to 13 amino acids, sequence not printed in the text (EVQKPRRARQKLR; Designed peptide based on homology to amino acid residue 50 to 62 from Protein LCE6A)
marking of the granular keratinocytes, negative control [1]: no marking is obtained

SEQ ID NO: 4: polypeptide fragment of LCE6A, 9 to 13 amino acids, sequence not printed in the text (SSQRPEVQKPR; Designed peptide based on homology to amino acid residue 45 to 55 from Protein LCE6A)
marking of the granular keratinocytes, negative control [1]: no marking is obtained

MSQAKQQSW (Mutated peptide of SEQ ID NO 3) [reference compound]
marking of the contour of the granular keratinocytes (polypeptide bound to cornified envelopes) [1]: does not give any pericellular marking

RPAPPPISGGGYRAR (Control peptide of SEQ ID NO 19) [reference compound]
marking of the contour of the granular keratinocytes (polypeptide bound to cornified envelopes) [1]: does not give any pericellular marking

PEVQKG (Designed peptide based on homology to amino acid residue 49 to 54 from Protein LCE6A)
ability to bind cornified envelopes (conclusion) [2]: possesses the ability to bind cornified envelopes
labelling of the contour of the granular keratinocytes (peptide crosslinked to cornified envelopes) [2]: strong labelling of the contour of the granular keratinocytes
labelling of the granular keratinocytes, negative control [2]: Absence of labelling

PEVQKP (fragment)
labelling of the contour of the granular keratinocytes (peptide crosslinked to cornified envelopes) [2]: labelling of the contour of the granular keratinocytes
labelling of the granular keratinocytes, negative control [2]: Absence of labelling
